In US6800775B1, “Metal complexes of tripodal ligands” (Ciba Specialty Chemicals Corporation, priority 1999, dated 2004):

Columns and labels:
[1] = DTI (dye transfer inhibition) test, white cotton in wash liquor with dissolved test dye; conditions: complex 20 μmol/l wash liquor, 8.6 mmol/l H2O2, 40° C., 30 min; for DTI effect a(%) Dye 1: Direct Brown 172 10 mg/l of the 250% formulation; for DTI effect a(%) Dye 2: Reactive Blue 238 6 mg/l of the 100% formulation
Method: The catalysts were tested for DTI activity. The DTI (dye transfer inhibition) effect a is defined as the following percentage:
a=([Y(E)−Y(A)]/[Y(W)−Y(A)])*100
where Y(W), Y(A) and Y(E) are the CIE lightnesses of the white material, of the material treated without added catalyst and of the material treated with added catalyst, in that order. a=0 characterizes a product of nil utility, the inclusion of which in the wash liquor does nothing to impede dye transfer. a=100%, by contrast, defines a perfect catalyst, which completely suppresses the tainting of the white material.
The test data are determined using the following testing system: 7.5 g of white cotton are treated in 80 ml of wash liquor. This liquor contains the standard detergent ECE phosphate-free (456 IEC) EMPA, Switzerland, in a concentration of 7.5g/l, 8.6 mmol/l H2O2, and a solution of the test dye. The washing process is carried out in a pot in a LINITEST apparatus at 40° C. for 30 min. Commercially available Direct Brown 172 (dye 1) at 10 mg/l of the 250% formulation or Reactive Blue 238 (dye 2) at 6 mg/l of the 100% formulation were used as test dyes. The reflectants spectra of the samples were measured with a SPECTRAFLASH 2000 and transformed into D65/10 lightnesses by the CIE standard procedure.
The manganese complexes are synthesized either as described in Example 13 or in situ by adding the corresponding manganese(III) salt in ethanolic solution. The complexes are always used at 20 μmol/l wash liquor. It is evident from the table that the recited catalysts are very effective DTI catalysts. […]

[2] = Bleach test, tea stain on cotton fabric; conditions: 100 μmol/l ligand; 8.6 mmol/l hydrogen peroxide; 40° C., 30 minutes; H2O2 only gives 18
Method: The bleach tests are carried out as follows: 7.5 g of white cotton fabric and 2.5 g of a tea stain on cotton fabric are treated in 80 ml of wash liquor. This liquor contains the standard laundry detergent ECE phosphate-free (456 IEC) EMPA, Switzerland in a concentration of 7.5 g/l, hydrogen peroxides in a concentration of 8.6 mmol/l and optionally 100 μmol/l of one of the ligands according to the invention. The washing process takes place in a steel pot in a LINITEST apparatus at 40° C. for 30 minutes. The bleaching results are evaluated using the increase in lightness DY (lightness difference as per CIE) of the stain due to the treatment.

SMILES | DTI effect a(%) Dye 1 [1] [%] | DTI effect a(%) Dye 2 [1] [%] | DY with H2O2 and ligand (increase in lightness of the stain) [2]
Oc1ccccc1/C=N\CCN(CC/N=C/c1ccccc1O)CC/N=C/c1ccccc1O [Example 1, N,N′,N″-Tris[salicylideneaminoethyl]amine] | 91 | 96 | –
CCN(CC)c1ccc(C=NCCN(CCN=Cc2ccc(N(CC)CC)cc2O)CC/N=C/c2ccc(N(CC)CC)cc2O)c(O)c1 [Example 2, N,N′,N″-Tris[4-N-diethylaminosalicylideneaminoethyl]amine] | 78 | 73 | 21
CN(C)c1ccc(/C=N\CCN(CC/N=C/c2ccc(N(C)C)cc2O)CC/N=C/c2ccc(N(C)C)cc2O)c(O)c1 [Example 3, N,N′,N″-Tris[4-N-dimethylaminosalicylideneaminoethyl]amine] | 85 | 80 | 22
COc1ccc(/C=N\CCN(CC/N=C/c2ccc(OC)cc2O)CC/N=C/c2ccc(OC)cc2O)c(O)c1 [Example 4, N,N′,N″-Tris[4-methoxysalicylideneaminoethyl]amine] | 83 | 67 | –
Oc1ccc(/C=N\CCN(CC/N=C/c2ccc(O)cc2O)CC/N=C/c2ccc(O)cc2O)c(O)c1 [Example 5, N,N′,N″-Tris[4-hydroxysalicylideneaminoethyl]amine] | 78 | 27 | –
O=[N+]([O-])c1ccc(O)c(C=NCCN(CCN=Cc2cc([N+](=O)[O-])ccc2O)CC/N=C/c2cc([N+](=O)[O-])ccc2O)c1 [Example 6, N,N′, N″-Tris[5-nitrosalicylideneaminoethyl]amine] | 70 | 80 | –
CC(C)N(C)c1ccc(C=NCCN(CCN=Cc2ccc(N(C)C(C)C)cc2O)CC/N=C/c2ccc(N(C)C(C)C)cc2O)c(O)c1 [Example 7, N,N′,N″-Tris[(4-N-methyl-N-isopropylamino)salicylideneaminoethyl]amine] | 84 | 83 | 21
CCN(C)c1ccc(C=NCCN(CCN=Cc2ccc(N(C)CC)cc2O)CC/N=C/c2ccc(N(C)CC)cc2O)c(O)c1 [Example 8, N,N′,N″-Tris[(4-N-methyl-N-ethylamino)salicylideneaminoethyl]amine] | 85 | 81 | 22
Cc1ccc(C=NCCN(CCN=Cc2ccc(C)cc2O)CC/N=C/c2ccc(C)cc2O)c(O)c1 [Example 9, N,N′,N″-Tris[4-methylsalicylideneaminoethyl]amine] | 87 | 94 | –
C[N+](C)(C)c1ccc(C=NCCN(CCN=Cc2ccc([N+](C)(C)C)cc2O)CC/N=C/c2ccc([N+](C)(C)C)cc2O)c(O)c1.[Br-].[Br-].[Br-] [Example 10, N,N′, N″-Tris[4-trimethylammoniosalicylideneaminoethyl]amine tribromide] | 90 | 96 | –
C[N+](C)(C)c1ccc(O)c(C=NCCN(CCN=Cc2cc([N+](C)(C)C)ccc2O)CC/N=C/c2cc([N+](C)(C)C)ccc2O)c1.[Br-].[Br-].[Br-] [Example 11, N,N′,N″-Tris[5-trimethylammoniosalicylideneaminoethyl]amine tribromide] | 86 | 94 | –
O=S(=O)([O-])c1ccc(O)c(C=NCCN(CCN=Cc2cc(S(=O)(=O)[O-])ccc2O)CC/N=C/c2cc(S(=O)(=O)[O-])ccc2O)c1.[Na+].[Na+].[Na+] [Example 12, N,N′,N″-Tris[5-sulfonatosalicylideneaminoethyl]amine, trisodium salt] | 80 | 99 | –
